system: Herpes simplex (HSV1 facial herpes or HSV2 genital herpes); test: Survey of Herpes simplex patients who treated themselves with jojoba oil esters; type: in vivo, human; details: jojoba oil esters compared with the previously used medication
Text: The study included male and female subjects with a history of multiple Herpes simplex infections that were either HSV1 facial herpes or HSV2 genital herpes. There was non intentional discrimination as to age, sex, and educational or ethnic background.
In this study 57 subjects compared jojoba oil ester treatment with previously used remedies, including no treatment at all. Each subject was given directions as to how to apply the jojoba oil esters. Subjects were advised to begin treatment at the very earliest warning symptoms of burning, itching or tingling that precede a new cold sore outbreak. They were directed to apply one drop of the solution to the herpes area with their finger, then reapply it again in 15 minutes and at mealtimes and bedtime for three days.
The study utilized a survey sheet that included the average number of outbreaks per year in the past, time and date of this new outbreak and how many hours after the first symptoms before treatment was started. Subjects reported the number of doses applied, and the number of days from the onset until they were free of symptoms. They also rated the effectiveness of this treatment compared to previous remedies they had used.

SMILES | % reporting jojoba Ester more Effective [%] | JOE avg effective (number of patients who had used this Rx) | JOE much more effective (number of patients who had used this Rx) | JOE a little More effective (number of patients who had used this Rx) | JOE a little less effective (number of patients who had used this Rx)
NCCCC[C@H](N)C(=O)O [Lycine] | 67 | 2 | 4 | – | –
CC(=O)OCC(CCn1cnc2cnc(N)nc21)COC(C)=O [Famavir] | 100 | – | 1 | – | –
OO [Hydrogen peroxide] | 100 | – | 1 | 1 | –
CC[C@H]1OC(=O)[C@H](C)[C@@H](O[C@H]2C[C@@](C)(OC)[C@@H](O)[C@H](C)O2)[C@H](C)[C@@H](O[C@@H]2O[C@H](C)C[C@H](N(C)C)[C@H]2O)[C@](C)(O)C[C@@H](C)CN(C)[C@H](C)[C@@H](O)[C@]1(C)O [Zithromax] | 100 | – | 1 | – | –
Nc1nc2c(ncn2COCCO)c(=O)[nH]1 [Acyclovir/Zovirax, Acyclovir] | 84 | 2 | 14 | 2 | 1
CC(=O)Oc1ccccc1C(=O)O [Aspirin] | 100 | – | 1 | – | –
CC(C)[C@H](N)C(=O)OCCOCn1cnc2c(=O)[nH]c(N)nc21 [Valtrex] | 100 | – | 1 | 1 | –
C[S+](C)[O-] [DMSO] | 100 | – | – | 1 | –
